What was measured:
Test in all cases: NCI 60 cell line screen (SRB), Leukemia
Assay type in all cases: cell-based, human
RPMI-8226 = test system: RPMI-8226
Text: (§1) The operation of this screen utilizes 60 different human tumor cell lines, representing leukemia, melanoma and cancers of the lung, colon, brain, ovary, breast, prostate, and kidney. The aim is to prioritize for further evaluation, synthetic compounds or natural product samples showing selective growth inhibition or cell killing of particular tumor cell lines. This screen is unique in that the complexity of a 60 cell line dose response produced by a given compound results in a biological response pattern which can be utilized in pattern recognition algorithms. Using these algorithms, it is possible to assign a putative mechanism of action to a test compound, or to determine that the response pattern is unique and not similar to that of any of the standard prototype compounds included in the NCl database (see DTP Overview tab). In addition, following characterization of various cellular molecular targets in the 60 cell lines, it may be possible to select compounds most likely to interact with a specific molecular target.
(§2) The human tumor cell lines of the cancer screening panel are grown in RPMI 1640 medium containing 5% fetal bovine serum and 2 mM L-glutamine. For a typical screening experiment, cells are inoculated into 96 well microtiter plates in 100 μL at plating densities ranging from 5,000 to 40,000 cells/well depending on the doubling time of individual cell lines. After cell inoculation, the microtiter plates are incubated at 37° C., 5% CO2, 95% air and 100% relative humidity for 24 h prior to addition of experimental drugs.
(§3) After 24 h, two plates of each cell line are fixed in situ with TCA, to represent a measurement of the cell population for each cell line at the time of drug addition (Tz). Experimental drugs are solubilized in dimethyl sulfoxide at 400-fold the desired final maximum test concentration and stored frozen prior to use. At the time of drug addition, an aliquot of frozen concentrate is thawed and diluted to twice the desired final maximum test concentration with complete medium containing 50 μg/ml gentamicin. Additional four, 10-fold or ½ log serial dilutions are made to provide a total of five drug concentrations plus control. Aliquots of 100 μl of these different drug dilutions are added to the appropriate microtiter wells already containing 100 μl of medium, resulting in the required final drug concentrations.
(§4) Following drug addition, the plates are incubated for an additional 48 h at 37° C., 5% CO2, 95% air, and 100% relative humidity. For adherent cells, the assay is terminated by the addition of cold TCA. Cells are fixed in situ by the gentle addition of 50 μl of cold 50% (w/v) TCA (final concentration, 10% TCA) and incubated for 60 minutes at 4° C. The supernatant is discarded, and the plates are washed five times with tap water and air dried. Sulforhodamine B (SRB) solution (100 μl) at 0.4% (w/v) in 1% acetic acid is added to each well, and plates are incubated for 10 minutes at room temperature. After staining, unbound dye is removed by washing five times with 1% acetic acid and the plates are air dried. Bound stain is subsequently solubilized with 10 mM trizma base, and the absorbance is read on an automated plate reader at a wavelength of 515 nm. For suspension cells, the methodology is the same except that the assay is terminated by fixing settled cells at the bottom of the wells by gently adding 50 μl of 80% TCA (final concentration, 16% TCA). Using the seven absorbance measurements [time zero, (Tz), control growth, (C), and test growth in the presence of drug at the five concentration levels (Ti)], the percentage growth is calculated at each of the drug concentrations levels. Percentage growth inhibition is calculated as: [(Ti−Tz)/(C−Tz)]×100 for concentrations for which Ti>/=Tz [(Ti−Tz)/Tz]×100 for concentrations for which Ti<Tz.
(§5) Three dose response parameters are calculated for each experimental agent. […]

K-562 = test system: K-562
Text: as §1, §2, §3, §4, §5

CCRF-CEM = test system: CCRF-CEM
Text: as §1, §2, §3, §4, §5

MOLT-4 = test system: MOLT-4
Text: as §1, §2, §3, §4, §5

COc1cccc(CCNC(=O)CC(c2ccccc2)(c2ccccc2)c2ccccc2)c1 [Compound Z3]
GI50 (RPMI-8226; RPMI-8226): 4.98 µM
TGI (RPMI-8226; RPMI-8226): >1.00E−04
Percent Growth (RPMI-8226; RPMI-8226, Log10 Concentration −4.0): 24%
Percent Growth (RPMI-8226; RPMI-8226, Log10 Concentration −5.0): 29%
Percent Growth (RPMI-8226; RPMI-8226, Log10 Concentration −6.0): 98%
Percent Growth (RPMI-8226; RPMI-8226, Log10 Concentration −7.0): 100%
Percent Growth (RPMI-8226; RPMI-8226, Log10 Concentration −8.0): 92%
CC50 (RPMI-8226; RPMI-8226, read-out: LC50 (the source's name)): > 100 µM
GI50 (K-562; K-562): 6.03 µM
TGI (K-562; K-562): >1.00E−04
Percent Growth (K-562; K-562, Log10 Concentration −4.0): 32%
Percent Growth (K-562; K-562, Log10 Concentration −5.0): 36%
Percent Growth (K-562; K-562, Log10 Concentration −6.0): 100%
Percent Growth (K-562; K-562, Log10 Concentration −7.0): 100%
Percent Growth (K-562; K-562, Log10 Concentration −8.0): 102%
CC50 (K-562; K-562, read-out: LC50 (the source's name)): > 100 µM
GI50 (CCRF-CEM): 8.16 µM
TGI (CCRF-CEM): >1.00E−04
Percent Growth (CCRF-CEM; Log10 Concentration −4.0): 34%
Percent Growth (CCRF-CEM; Log10 Concentration −5.0): 48%
Percent Growth (CCRF-CEM; Log10 Concentration −6.0): 74%
Percent Growth (CCRF-CEM; Log10 Concentration −7.0): 94%
Percent Growth (CCRF-CEM; Log10 Concentration −8.0): 62%
CC50 (CCRF-CEM; read-out: LC50 (the source's name)): > 100 µM
GI50 (MOLT-4; MOLT-4): 6.01 µM
TGI (MOLT-4; MOLT-4): >1.00E−04
Percent Growth (MOLT-4; MOLT-4, Log10 Concentration −4.0): 33%
Percent Growth (MOLT-4; MOLT-4, Log10 Concentration −5.0): 34%
Percent Growth (MOLT-4; MOLT-4, Log10 Concentration −6.0): 107%
Percent Growth (MOLT-4; MOLT-4, Log10 Concentration −7.0): 123%
Percent Growth (MOLT-4; MOLT-4, Log10 Concentration −8.0): 116%
CC50 (MOLT-4; MOLT-4, read-out: LC50 (the source's name)): > 100 µM

Reference: patent US7632972B2, “Compounds and methods for treatment of cancer and modulation of programmed cell death for melanoma and other cancer cells” (The Board of Trustees of the University of Illionis, priority 2003, dated 2009)
